Assay results: patent US20250188068A1, “AMIDO CYCLOPROPYL DERIVATIVES AS LPA RECEPTOR INHIBITORS” (CHIESI FARMACEUTICI S.P.A., priority 2022, published 2025)

The compounds below were run against T1, human recombinant LPA1 expressed in CHO cells (Homo sapiens, UniProt Q92633) (assay: FLIPR calcium mobilization assay, LPA1 antagonism in CHO-hLPA1 cells). Settings: inhibition of LPA EC80 Ca2+ response, 30 min pre-incubation, range of activity.
T1 construct: expressed in transfected cells; host or cells: CHO cells (CHO-hLPA1 cell line)
Format: cell-based
Method: The effectiveness of compounds of the present invention as LPA1 antagonist can be determined at the human recombinant LPA1 expressed in CHO cells, using a FLIPR assay in 384 well format.
CHO-hLPA1 cell lines are cultured in a humidified incubator at 5% CO2 in DMEM/F-12 (1:1) MIXTURE with 2 mM Glutamax, supplemented with 10% of Foetal Bovine Serum, 1 mM Sodium Pyruvate, 11 mM Hepes and 1× Penicillin/Streptomycin. CHO hLPA1 cells are seeded into black walled clear-bottom 384-well plates (#781091, Greiner Bio-One GmbH) at a density of 7,500 cells per well in 50 μl culture media and grown overnight in a 37° C. humidified CO2-incubator. Serial dilutions (1:3 or 1:4, 11 points CRC) of compounds are performed in 100% DMSO at 200× the final concentration. The compounds are diluted 1:50 prior to the experiment with Assay Buffer (20 mM HEPES, 145 mM NaCl, 5 mM KCl, 5.5 mM glucose, 1 mM MgCl2 and 2 mM CaCl2), pH 7.4 containing 0.01% Pluronic F-127) to obtain a solution corresponding to […] the final concentration in the assay (4×, 2% DMSO). The final concentration of DMSO in the assay will be 0.5% in each well. Medium is removed by aspiration and cells are then incubated with 30 μl of a loading solution containing 5 μM of the cytoplasmic Ca2+ indicator Cal-520 AM in Assay Buffer containing 2.5 mM probenecid for 30 min at 37° C. incubator (cell loading). The loaded cell plates are transferred into the FLIPR instrument and calcium responses are monitored during the on-line addition protocols. For testing of compounds, after the cell loading, 10 μl/well of 4× antagonists' solution was added onto the cells. After 30 min pre-incubation (at 37° C.), 10 μl/well of 5× concentrated LPA EC80 was added and Ca2+ mobilization responses was followed during the on-line addition protocol. Intracellular peak fluorescence values subtracted by baseline fluorescence are exported and analysed to determine IC50 values, respectively. The calcium response is expressed as percentage of the maximal inhibition of the EC80 agonist response.
The raw data obtained in unstimulated controls (DMSO, no LPA) are set as “100% inhibition”, while the raw data obtained in negative controls, i.e. in the absence of compounds and stimulating with LPA EC80, are set as “0% inhibition”.
The raw data (peak height expressed as relative fluorescence units) are normalized and transformed into “percent of inhibition”. Curve fitting and pIC50 (−Log IC50) estimations are carried out using a four-parameter logistic model using XLfit Software.

T1 sequence (Q92633 whole entry): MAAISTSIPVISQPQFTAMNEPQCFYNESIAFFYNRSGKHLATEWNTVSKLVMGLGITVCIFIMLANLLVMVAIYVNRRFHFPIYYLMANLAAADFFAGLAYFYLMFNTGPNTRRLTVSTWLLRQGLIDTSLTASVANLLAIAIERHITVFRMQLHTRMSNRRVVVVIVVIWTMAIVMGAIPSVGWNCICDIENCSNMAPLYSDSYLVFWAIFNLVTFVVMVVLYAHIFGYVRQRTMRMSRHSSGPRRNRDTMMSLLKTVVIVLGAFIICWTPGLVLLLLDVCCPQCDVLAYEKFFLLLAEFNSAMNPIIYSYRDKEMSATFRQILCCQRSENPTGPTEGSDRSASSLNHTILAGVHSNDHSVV

Row | SMILES | IC50
1 | Cc1nc(-c2onc(C)c2NC(=O)O[C@H](C)c2ccccc2Cl)ccc1NC(=O)C1C(c2noc(=O)[nH]2)C1(F)F (stereo partly drawn) [Compound 42, (R)-1-(2-chlorophenyl)ethyl (5-(5-(2,2-difluoro-3-(5-oxo-4,5-dihydro-1,2,4-oxadiazol-3-yl)cyclopropane-1-carboxamido)-6-methylpyridin-2-yl)-3-methylisoxazol-4-yl)carbamate] | < 50 nM
2 | Cc1nc(-c2onc(C)c2NC(=O)O[C@H](C)c2ccccc2Cl)ccc1NC(=O)[C@@H]1[C@@H](c2n[nH]c(=S)n2C)C1(F)F [Compound 44, (R)-1-(2-chlorophenyl)ethyl (5-(5-((1S,3S)-2,2-difluoro-3-(4-methyl-5-thioxo-4,5-dihydro-1H-1,2,4-triazol-3-yl)cyclopropane-1-carboxamido)-6-methylpyridin-2-yl)-3-methylisoxazol-4-yl)carbamate] | 50 to 100 nM
3 | Cc1nc(-c2onc(C)c2NC(=O)O[C@H](C)c2ccccc2Cl)ccc1CNC(=O)C1C(C(=O)O)C1(F)F (mixture of isomers) [Compound 16, 3-(((6-(4-((((R)-1-(2-chlorophenyl)ethoxy)carbonyl)amino)-3-methylisoxazol-5-yl)-2-methylpyridin-3-yl)methyl)carbamoyl)-2,2-difluorocyclopropane-1-carboxylic acid, mix of Cis diastereomers] | 50 to 100 nM
4 | Cc1nc(-c2onc(C)c2CNc2nccc(-c3ccco3)n2)ccc1NC(=O)[C@@H]1[C@@H](C(=O)O)C1(F)F [Compound 22, (1S,3S)-2,2-difluoro-3-((6-(4-(((4-(furan-2-yl)pyrimidin-2-yl)amino)methyl)-3-methylisoxazol-5-yl)-2-methylpyridin-3-yl)carbamoyl)cyclopropane-1-carboxylic acid] | 100 to 200 nM
5 | Cc1nc(-c2onc(C)c2CNc2nccc(-c3cnccn3)n2)ccc1NC(=O)[C@@H]1[C@@H](C(=O)O)C1(F)F [Compound 23, (1S,3S)-2,2-difluoro-3-((2-methyl-6-(3-methyl-4-(((4-(pyrazin-2-yl)pyrimidin-2-yl)amino)methyl)isoxazol-5-yl)pyridin-3-yl)carbamoyl)cyclopropane-1-carboxylic acid] | < 50 nM

More lines, now with the values ahead:

Row | IC50 | SMILES
6 | < 50 nM | Cc1nc(-c2onc(C)c2CNc2nccc(C3CCCCC3)n2)ccc1NC(=O)[C@@H]1[C@@H](C(=O)O)C1(F)F (racemic) [Compound 18, 3-((6-(4-(((4-cyclohexylpyrimidin-2-yl)amino)methyl)-3-methylisoxazol-5-yl)-2-methylpyridin-3-yl)carbamoyl)-2,2-difluorocyclopropane-1-carboxylic acid, mix of Trans diastereomers]
7 | < 50 nM | Cc1nc(-c2nnn(C)c2NC(=O)O[C@H](C)c2ccccc2Cl)ccc1NC(=O)C1C(C(=O)O)C1(F)F (single isomer, unassigned) [Compound 32]
8 | < 50 nM | Cc1nc(-c2onc(C)c2NC(=O)O[C@H](C)c2ccccc2Cl)ccc1NC(=O)C1C(c2noc(=S)[nH]2)C1(F)F (stereo partly drawn) [Compound 41, (R)-1-(2-chlorophenyl)ethyl (5-(5-(2,2-difluoro-3-(5-thioxo-4,5-dihydro-1,2,4-oxadiazol-3-yl)cyclopropane-1-carboxamido)-6-methylpyridin-2-yl)-3-methylisoxazol-4-yl)carbamate]
9 | < 50 nM | Cc1nc(-c2onc(C)c2NC(=O)O[C@H](C)c2ccccc2Cl)ccc1NC(=O)[C@H]1[C@H](C(=O)O)C1(F)F [Compound 2, (1R,3R)-3-((6-(4-((((R)-1-(2-chlorophenyl)ethoxy)carbonyl)amino)-3-methylisoxazol-5-yl)-2-methylpyridin-3-yl)carbamoyl)-2,2-difluorocyclopropane-1-carboxylic acid]

What follows are compounds tested on Caco-2 cells monolayers (human colon carcinoma cell line) (assay: not given). Settings: Caco-2, 60 min, 10 μM, pH 7.4.

Row | SMILES | Passive Permeability
10 | Cc1nc(-c2onc(C)c2NC(=O)O[C@H](C)c2ccccc2Cl)ccc1NC(=O)C1C(c2noc(=O)[nH]2)C1(F)F (stereo partly drawn) [Compound 42, (R)-1-(2-chlorophenyl)ethyl (5-(5-(2,2-difluoro-3-(5-oxo-4,5-dihydro-1,2,4-oxadiazol-3-yl)cyclopropane-1-carboxamido)-6-methylpyridin-2-yl)-3-methylisoxazol-4-yl)carbamate] | ≤0.5 ×10⁻⁶ cm/s
